Laboratory results from ChEMBL document CHEMBL1136778, “Mitomycin antitumor compounds. 2. Interaction of transition metal ions with mitomycin C. Solution structure and biological activity of a Pd(2+)-MMC complex” (J Med Chem, 2003).
pIC50: −log10 of the molar value.

Experiments:
K562 [1] = experiment: In vitro inhibitory activity against K562 leukemia cells; format: functional, cell-based; details: Homo sapiens
K562 [2] = experiment: In vitro inhibitory activity against K562 leukemia cells in the presence of pd2; format: functional, cell-based; details: Homo sapiens

pIC50 (K562 [2])	Structure (SMILES)	pIC50 (K562 [1])
–	CC1=C(N)C(=O)c2c(COC(N)=O)c3n(c2C1=O)C[C@H](N)[C@@H]3O	7.48
7.80	CO[C@@]12[C@H](COC(N)=O)C3=C(C(=O)C(C)=C(N)C3=O)N1C[C@@H]1N[C@@H]12 [MITOMYCIN]	9.00
